Here are results for 25 compounds from patent publication US12590091B2, “1H-pyrrolo[3,2-C]pyridine and 1H-pyrrolo[2,3-C]pyridine derivatives as TLR9 inhibitors for the treatment of fibrosis” (BRISTOL-MYERS SQUIBB COMPANY, priority 2020, dated 2026).

The test deals with T1, human TLR9 (Homo sapiens, UniProt Q9NR96).
T1 construct: host or cells: HEK-Blue cells
T1 sequence (Q9NR96 26-1032): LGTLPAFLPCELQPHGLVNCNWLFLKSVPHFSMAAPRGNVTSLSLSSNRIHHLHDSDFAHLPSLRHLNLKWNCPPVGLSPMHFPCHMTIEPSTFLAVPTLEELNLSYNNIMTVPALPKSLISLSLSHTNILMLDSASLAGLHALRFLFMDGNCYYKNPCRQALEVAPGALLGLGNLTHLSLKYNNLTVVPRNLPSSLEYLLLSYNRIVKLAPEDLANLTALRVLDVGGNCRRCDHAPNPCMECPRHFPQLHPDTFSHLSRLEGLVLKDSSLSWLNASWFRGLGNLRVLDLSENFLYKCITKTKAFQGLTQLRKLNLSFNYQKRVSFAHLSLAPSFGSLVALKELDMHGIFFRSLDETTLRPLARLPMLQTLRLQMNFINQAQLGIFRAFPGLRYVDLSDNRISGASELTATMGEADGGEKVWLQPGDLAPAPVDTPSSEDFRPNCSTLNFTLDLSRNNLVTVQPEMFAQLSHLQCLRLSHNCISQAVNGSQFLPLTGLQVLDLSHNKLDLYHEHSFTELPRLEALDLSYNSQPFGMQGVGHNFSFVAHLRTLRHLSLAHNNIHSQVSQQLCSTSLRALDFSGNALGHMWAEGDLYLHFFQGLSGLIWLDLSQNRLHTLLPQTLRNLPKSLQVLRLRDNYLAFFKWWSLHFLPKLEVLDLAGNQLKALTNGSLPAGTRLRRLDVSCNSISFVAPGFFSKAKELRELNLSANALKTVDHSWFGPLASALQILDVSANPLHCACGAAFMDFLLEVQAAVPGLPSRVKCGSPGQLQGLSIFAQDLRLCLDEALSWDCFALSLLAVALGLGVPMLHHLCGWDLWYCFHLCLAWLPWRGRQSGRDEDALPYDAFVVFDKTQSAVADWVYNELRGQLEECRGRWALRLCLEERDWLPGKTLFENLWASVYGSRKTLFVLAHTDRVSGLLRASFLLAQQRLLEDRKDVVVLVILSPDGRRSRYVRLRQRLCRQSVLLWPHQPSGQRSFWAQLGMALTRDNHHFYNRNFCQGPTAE
The experiment in a line: TLR9 inhibition reporter assay (HEK-Blue cells, SEAP reporter). The note with it: HEK-Blue cells overexpressing human TLR9, stimulated with ODN2006 5 nM, 22 hour incubation. Format: cell-based. The procedure, abridged: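 Compound dose-response (0.05 nM–50 μM final) on agonist-stimulated human TLR9 HEK-Blue cells, 25,000/well, incubated 22 h at 37 °C, 5% CO2. Readout was secreted alkaline phosphatase under an IFN-β minimal promoter with NF-κB/AP-1 sites; inhibition expressed relative to DMSO and reference-inhibitor controls.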

Consider `COc1ccc(-c2cc3cnc(-c4ccc(N5CCN(C(C)C)CC5)nc4)cc3n2C)cc1OC` [Example 31, 2-(3,4-dimethoxyphenyl)-6-(6-(4-isopropylpiperazin-1-yl)pyridin-3-yl)-1-methyl-1H-pyrrolo[3,2-c]pyridine], for which the midpoint of inhibition, the IC50, lay at 72 nM. That is a double-digit nanomolar value. As to `COc1ccc(-c2c(C)n(C)c3cnc(-c4ccc(N5CCN(C(C)C)CC5)cc4)cc23)cc1OC` [Example 32, 3-(3,4-dimethoxyphenyl)-5-(4-(4-isopropylpiperazin-1-yl)phenyl)-1,2-dimethyl-1H-pyrrolo[2,3-c]pyridine], the IC50 (as a rule, the midpoint of a concentration-inhibition curve) is 170 nM. In the case of `COc1ccc(-c2c(C)n(C)c3cnc(-c4ccc(N5CCN(CCC(C)(C)O)CC5)cc4)cc23)cc1OC` [Example 33, 4-(4-(4-(3-(3,4-dimethoxyphenyl)-1,2-dimethyl-1H-pyrrolo[2,3-c]pyridin-5-yl)phenyl)piperazin-1-yl)-2-methylbutan-2-ol] it was 27 nM; in that of `Cc1nc(-c2ccc(N3CCN(CC(C)C)CC3)cc2)cc2c1cc(-c1ccc(S(C)(=O)=O)cc1)n2C` [Example 34, 6-(4-(4-isobutylpiperazin-1-yl)phenyl)-1,4-dimethyl-2-(4-(methylsulfonyl)phenyl)-1H-pyrrolo[3,2-c]pyridine], 10 nM. In the case of `Cc1nc(-c2ccc(N3CCN(C4CCOCC4)CC3)cc2)cc2c1cc(-c1ccc(S(C)(=O)=O)cc1)n2C` [Example 35, 1,4-dimethyl-2-(4-(methylsulfonyl)phenyl)-6-(4-(4-(tetrahydro-2H-pyran-4-yl)piperazin-1-yl)phenyl)-1H-pyrrolo[3,2-c]pyridine] it was 710 nM. In the case of `Cc1nc(-c2ccc(N3CCN(CCCO)CC3)cc2)cc2c1cc(-c1ccc(S(C)(=O)=O)cc1)n2C` [Example 36, 3-(4-(4-(1,4-dimethyl-2-(4-(methylsulfonyl)phenyl)-1H-pyrrolo[3,2-c]pyridin-6-yl)phenyl)piperazin-1-yl)propan-1-ol] it was 59 nM. Consider `Cc1nc(-c2ccc(N3CCN(C4CCOC4)CC3)cc2)cc2c1cc(-c1ccc(S(C)(=O)=O)cc1)n2C` (stereo not shown) [Example 37, 1,4-dimethyl-2-(4-(methylsulfonyl)phenyl)-6-(4-(4-(tetrahydrofuran-3-yl)piperazin-1-yl)phenyl)-1H-pyrrolo[3,2-c]pyridine], for which it took 57 nM to reach half-maximal inhibition (IC50).

For `COCCN1CCN(c2ccc(-c3cc4c(cc(-c5ccc(S(C)(=O)=O)cc5)n4C)c(C)n3)cc2)CC1` [Example 38, 6-(4-(4-(2-methoxyethyl)piperazin-1-yl)phenyl)-1,4-dimethyl-2-(4-(methylsulfonyl)phenyl)-1H-pyrrolo[3,2-c]pyridine], the IC50 was 56 nM.

With `Cc1nc(-c2ccc(C3CCN(CCCO)CC3)cc2)cc2c1cc(-c1ccc(S(C)(=O)=O)cc1)n2C` [Example 41, 3-(4-(4-(1,4-Dimethyl-2-(4-(methylsulfonyl)phenyl)-1H-pyrrolo[3,2-c]pyridin-6-yl)phenyl)piperidin-1-yl)propan-1-ol], the IC50 stood at 236 nM. In the case of `Cc1nc(-c2cc(F)c(N3CCNCC3)cc2F)cc2c1cc(-c1ccc(S(C)(=O)=O)cc1)n2C` [Example 43, 6-(2,5-Difluoro-4-(piperazin-1-yl)phenyl)-1,4-dimethyl-2-(4-(methylsulfonyl)phenyl)-1H-pyrrolo[3,2-c]pyridine] it was 79 nM; in that of `Cc1nc(-c2ccc(CN3CCN(CC(C)(C)O)CC3)cc2)cc2c1cc(-c1ccc(S(C)(=O)=O)cc1)n2C` [Example 44, 1-(4-(4-(1,4-Dimethyl-2-(4-(methylsulfonyl)phenyl)-1H-pyrrolo[3,2-c]pyridin-6-yl)benzyl)piperazin-1-yl)-2-methylpropan-2-ol], 96 nM; in that of `Cc1nc(-c2ccc(N3CCN(CCCO)CC3)cc2)cc2c1cc(-c1ccc(S(=O)(=O)C3CC3)cc1)n2C` [Example 47, 3-(4-(4-(2-(4-(cyclopropylsulfonyl)phenyl)-1,4-dimethyl-1H-pyrrolo[3,2-c]pyridin-6-yl)phenyl)piperazin-1-yl)propan-1-ol], 77 nM. The compound `COCCN1CCN(c2ccc(-c3cc4c(cc(-c5ccc(S(=O)(=O)C6CC6)cc5)n4C)c(C)n3)cc2)CC1` [Example 48, 2-(4-(cyclopropylsulfonyl)phenyl)-6-(4-(4-(2-methoxyethyl)piperazin-1-yl)phenyl)-1,4-dimethyl-1H-pyrrolo[3,2-c]pyridine] registered a half-maximal inhibitory concentration (IC50) of 385 nM. In the case of `CC(C)CN1CCN(c2ccc(-c3cc4c(cn3)cc(-c3ccc(S(C)(=O)=O)cc3)n4C)cc2)CC1` [Example 53, 6-(4-(4-isobutylpiperazin-1-yl)phenyl)-1-methyl-2-(4-(methylsulfonyl)phenyl)-1H-pyrrolo[3,2-c]pyridine] it was 21 nM; in that of `CC(C)N1CCN(c2ccc(-c3cc4c(cn3)cc(-c3ccc(S(C)(=O)=O)cc3)n4C)cc2)CC1` [Example 54, 6-(4-(4-isopropylpiperazin-1-yl)phenyl)-1-methyl-2-(4-(methylsulfonyl)phenyl)-1H-pyrrolo[3,2-c]pyridine], 42 nM; in that of `Cc1nc(-c2ccc(N3CCN(CCCO)CC3)c(F)c2F)cc2c1cc(-c1ccc(S(C)(=O)=O)cc1)n2C` [Example 55, 3-(4-(4-(1,4-dimethyl-2-(4-(methylsulfonyl)phenyl)-1H-pyrrolo[3,2-c]pyridin-6-yl)-2,3-difluorophenyl)piperazin-1-yl)propan-1-ol], 2810 nM. In the case of `Cc1nc(-c2cc(F)c(N3CCN(CCCO)CC3)cc2F)cc2c1cc(-c1ccc(S(C)(=O)=O)cc1)n2C` [Example 56, 3-(4-(4-(1,4-dimethyl-2-(4-(methylsulfonyl)phenyl)-1H-pyrrolo[3,2-c]pyridin-6-yl)-2,5-difluorophenyl)piperazin-1-yl)propan-1-ol] it was 270 nM.

`Cc1nc(-c2ccc(CN3CCN(CC(C)C)CC3)cc2)cc2c1cc(-c1ccc(S(C)(=O)=O)cc1)n2C` [Example 57, 6-(4-((4-isobutylpiperazin-1-yl)methyl)phenyl)-1,4-dimethyl-2-(4-(methylsulfonyl)phenyl)-1H-pyrrolo[3,2-c]pyridine] came in with an IC50 of 46 nM. In the case of `Cc1nc(-c2ccc(CN3CCN(CCCO)CC3)cc2)cc2c1cc(-c1ccc(S(C)(=O)=O)cc1)n2C` [Example 58, 3-(4-(4-(1,4-dimethyl-2-(4-(methylsulfonyl)phenyl)-1H-pyrrolo[3,2-c]pyridin-6-yl)benzyl)piperazin-1-yl)propan-1-ol] it was 107 nM; in that of `Cc1nc(-c2ccc(CN3CCC(C)(O)CC3)cc2)cc2c1cc(-c1ccc(S(C)(=O)=O)cc1)n2C` [Example 59, 1-(4-(1,4-dimethyl-2-(4-(methylsulfonyl)phenyl)-1H-pyrrolo[3,2-c]pyridin-6-yl)benzyl)-4-methylpiperidin-4-ol], 772 nM; in that of `Cc1nc(-c2ccc(CN3CCN(CCC(C)(C)O)CC3)cc2)cc2c1cc(-c1ccc(S(C)(=O)=O)cc1)n2C` [Example 60, 4-(4-(4-(1,4-dimethyl-2-(4-(methylsulfonyl)phenyl)-1H-pyrrolo[3,2-c]pyridin-6-yl)benzyl)piperazin-1-yl)-2-methylbutan-2-ol], 64 nM. On to `Cc1nc(-c2ccc(CN3C[C@@H]4CC[C@H]3CN4CCC(C)(C)O)cc2)cc2c1cc(-c1ccc(S(C)(=O)=O)cc1)n2C` [Example 61, 4-((1S,4S)-5-(4-(1,4-dimethyl-2-(4-(methylsulfonyl)phenyl)-1H-pyrrolo[3,2-c]pyridin-6-yl)benzyl)-2,5-diazabicyclo[2.2.2]octan-2-yl)-2-methylbutan-2-ol], for which 109 nM corresponded to half-maximal inhibition (IC50). For the compound `Cc1nc(-c2ccc(N3CCN(CCO)CC3)c(F)c2)cc2c1cc(-c1ccc(S(C)(=O)=O)cc1)n2C` [Example 69, 2-(4-(4-(1,4-dimethyl-2-(4-(methylsulfonyl)phenyl)-1H-pyrrolo[3,2-c]pyridin-6-yl)-2-fluorophenyl)piperazin-1-yl)ethan-1-ol], half-maximal inhibition (IC50) was put at 78 nM. In the case of `Cc1nc(-c2ccc(N3CCN(C4CCOC4)CC3)c(F)c2)cc2c1cc(-c1ccc(S(C)(=O)=O)cc1)n2C` (stereo not shown) [Example 70, 6-(3-fluoro-4-(4-(tetrahydrofuran-3-yl)piperazin-1-yl)phenyl)-1,4-dimethyl-2-(4-(methylsulfonyl)phenyl)-1H-pyrrolo[3,2-c]pyridine] it was 260 nM; in that of `COCCN1C2CCC1CN(c1ccc(-c3cc4c(cc(-c5ccc(S(C)(=O)=O)cc5)n4C)c(C)n3)cc1)C2` [Example 74, 6-(4-(8-(2-methoxyethyl)-3,8-diazabicyclo[3.2.1]octan-3-yl)phenyl)-1,4-dimethyl-2-(4-(methylsulfonyl)phenyl)-1H-pyrrolo[3,2-c]pyridine], 58 nM.
